Data published in patent US20100129915A1, “METHODS FOR INDUCING CARDIOMYOGENESIS” (priority 2006, published 2010).

How the values were obtained:
Assay type in all cases: cell-based
[1] = system: Murine ES cells; experiment: Beating embryoid bodies (EBs) from ES cells grown in suspension; details: for number of beating EBs at EB12: early treatment EB4-6, Wnt3a 150 ng/ml or Dkk1 500 ng/ml, untreated 10%; for EBs beating by EB 12: late treatment EB 7-9, Wnt3a 150 ng/ml or Dkk1 500 ng/ml, control EBs 13%
Experimental: (§1) ES cell culture and gene expression analysis. Murine ES cells were propagated undifferentiated in maintenance medium consisting of Glasgow MEM (Sigma G5154) supplemented with 10% fetal bovine serum (FBS, Hyclone SH30071.03), 1 mM β-mercaptoethanol (Sigma M7522), 2 mM L-glutamine (Gibco-BRL 25030-081), 1 mM sodium pyruvate (Gibco-BRL 11360-070), 0.1 mM minimum essential medium containing nonessential amino acids, and LIF-conditioned medium (1:1000). EBs were formed by culturing ES cells (6×10^5/well) for 3 days in ultra-low-attachment six-well plates (Costar 07200601) in differentiation medium (DM), which contained the same components as maintenance medium but had 20% FBS and no LIF. For early treatment, the medium was replaced with DM containing Wnt3a (150 ng/ml, R&D systems) or Dkk1 (500 ng/ml, R&D systems) at the start of day 4; on day 6, the medium was replaced with fresh DM. For late treatment, DM was replaced with Wnt3a- or Dkk1-containing DM at the start of day 7 and switched to fresh DM on day 9. Respective media were changed for early-, late-, and un-treated EBs every 3 days. EBs were monitored for beating from days 8-12. EBs were collected between days 3 and 12 at regular intervals. For gene expression analysis, total RNA was isolated, and real-time PCR was performed with the ABI Prism system (7900HT, Applied Biosystems). All samples were run in triplicate. Real-time PCR data were normalized and standardized with SDS2.2 software.
(§2) FIGS. 4A-E. Canonical Wnt signaling regulates cardiac induction and differentiation in ES cells. a, Brachyury expression profiles, determined by quantitative real-time PCR (qPCR), of undifferentiated ES cells on day 0 and EBs harvested on days 3, 6, and 9 after early Wnt3a or Dkk-1 treatment compared to control. b, Beating EBs grown in suspension were counted from days 8-12. Percentage of beating EBs after early (days 4-6) or late (days 7-9) treatment with Wnt3a (left) or Dkk-1 (right). Asterisks indicate significant difference in beating percentage of treatment groups versus untreated EBs (P<0.01). c, d Immunohistochemistry of day 12 EBs with anti-Islet1 (c) or anti-Tropomyosin (d). e, Cardiac gene expression after early (days 4-6, top) or late (days 7-9, bottom) treatment with Wnt3a or Dkk-1. EBs were harvested on days 3, 6 and 9 (early treatment) or days 6, 9, and 12 (late treatment). Fold change in expression of all indicated genes (y-axis) in EBs with respect to undifferentiated ES cells was assessed by qPCR. NS, not significant. *P<0.01.

[2] = system: Murine ES cells; experiment: Immunohistochemistry of day 12 EBs with anti-Islet1 or anti-Tropomyosin; details: for number of Isl1-positive cells in EBs: anti-Islet1 immunohistochemistry; for number of Tropomyosin-positive cells in EBs: anti-Tropomyosin immunohistochemistry
Experimental: Immunohistochemistry and in situ hybridization. Whole or cryosectioned embryos and EBs were stained with the following antibodies: mouse anti-Islet1 (1:200) and anti-tropomyosin (1:100) (DSHB), goat anti-Wnt8a (15 μg/ml, R&D Systems), goat anti-β-catenin (1:50) and rat anti-cyclin D2 (1:100) (Santa Cruz Biotechnology), rabbit anti-phospho-Histone H3 (1:100, Upstate), and horseradish peroxidase-conjugated (with TSA plus Fluorescent Systems, PerkinElmer) secondary antibodies (The Jackson Laboratory). mRNA in situ hybridization was performed with designated antisense probes as described. Srivastava et al Science 270, 1995-9 (1995).
as §1
FIGS. 4A-E. Canonical Wnt signaling regulates cardiac induction and differentiation in ES cells. a, Brachyury expression profiles, determined by quantitative real-time PCR (qPCR), of undifferentiated ES cells on day 0 and EBs harvested on days 3, 6, and 9 after early Wnt3a or Dkk-1 treatment compared to control. b, Beating EBs grown in suspension were counted from days 8-12. Percentage of beating EBs after early (days 4-6) or late (days 7-9) treatment with Wnt3a (left) or Dkk-1 (right). […] Fold change in expression of all indicated genes (y-axis) in EBs with respect to undifferentiated ES cells was assessed by qPCR. […]

[3] = system: Murine ES cells; experiment: Mesoderm and cardiac gene expression in EBs by quantitative real-time PCR; details: qPCR; for Bry (Brachyury) expression: early treatment after EB3, compared to control; for expression of early cardiac gene Nkx2.5 / expression of early cardiac gene Tbx5: exposure from EB4-6 (early treatment); for expression of early and late cardiac markers (cardiac gene expression): late treatment EB 7-9
Experimental: as §1, §2

[4] = system: human embryonic stem (ES) cells (H9); experiment: Beating of differentiating human ES cells treated with Wnt-3a
Experimental: Differentiating human embryonic stem (ES) cells (H9) were treated with Wnt-3a. […] Thus, canonical Wnt promotes human ES cells to differentiate into cardiomyocytes.

Wnt3a
number of beating EBs at EB12 [1]: over 50% | EBs beating by EB 12 [1]: ~50% | number of Isl1-positive cells in EBs [2]: increased | number of Tropomyosin-positive cells in EBs [2]: increased | Bry (Brachyury) expression [3]: unaltered | expression of early cardiac gene Nkx2.5 [3]: upregulated | expression of early cardiac gene Tbx5 [3]: upregulated | expression of early and late cardiac markers (cardiac gene expression) [3]: upregulated | number of beating hES cells [4]: significantly increased

Dkk1
number of beating EBs at EB12 [1]: complete absence of beating EBs | EBs beating by EB 12 [1]: Approximately 10% | number of Isl1-positive cells in EBs [2]: decreased | number of Tropomyosin-positive cells in EBs [2]: decreased | Bry (Brachyury) expression [3]: unaltered | expression of early cardiac gene Nkx2.5 [3]: downregulated | expression of early cardiac gene Tbx5 [3]: downregulated | expression of early and late cardiac markers (cardiac gene expression) [3]: not changed
